Values quoted from earlier work, collected in patent US20130210767A1, “BIOCIDAL COMPOSITION AND METHOD” (Arcis Biotechnology Limited, priority 2010, published 2013).

Q: For `CCCCCCCCCCCCCCCCCC[N+](C)(C)CCC[Si](OC)(OC)OC` [compound of formula (I)], which “stability in aqueous solution” value (aqueous solution) is on record?
A: The value was “limited stability”.

Q: And the “stability in the presence of methanol” value (in the presence of methanol)?
A: Its value is “stable”.
